# According to PubChem BioAssay AID1963977 (Molecular Pharmacology Branch, DTP, NCI, 2024):
# System: 624824-186-R-J3-PDC multicell spheroids, viability
# Experiment: Anticancer human tumor 624824-186-R-J3-PDC patient-derived colon adenocarcinoma cell line growth inhibition [PI3K]
# Settings: for IC50: curve of first compound; for viability, T/C: stronger effect = lower value
# Source text: Combinatorial screen of targeted agents with the PI3K inhibitors inavolisib, alpelisib, duvelisib, and copanlisib in multi-cell type tumor spheroids
# A high-throughput screen of multi-cell type tumor spheroids was designed to identify active combinations of targeted small molecules and PI3K pathway inhibitors. Complex spheroids include a stromal component modeled by human endothelial cells (HUVEC) and fibroblasts modeled by human mesenchymal stem cells (MSCs). The concentration ranges selected for each drug and investigational agent were based upon clinically achievable concentrations if the clinical Cmax of the agent was known.
# Compounds. The drugs and investigational agents: inavolisib (NSC800729), alpelisib (NSC765974), duvelisib (NSC772469), copanlisib (NSC816437), ipatasertib (NSC767898), afuresertib (NSC778305), talazoparib (NSC767125), sapanisertib (NSC764658), selumetinib (NSC741078), tovorafenib (DAY101, NSC766906), vemurafenib (NSC761431), ravoxertinib (NSC781343), sotorasib (NSC818433), MRTX1133 (NSC 836407), abemaciclib (NSC 768073), palbociclib (NSC758247), venetoclax (NSC 766270), SY5609 (NSC837396), enzalutamide (NSC755605), and darolutamide (NSC825331), were obtained from the National Cancer Institute (NCI) Developmental Therapeutics Program Chemical Repository. The FDA-approved anticancer drug set is available from the NCI Developmental Therapeutics Program. […] The stock solutions were prepared in dimethyl sulfoxide (DMSO, Sigma-Aldrich, St. Louis, MO, cat. D2650) at 800-fold the tested concentration and stored at -70 degrees C prior to their use. All drugs and investigational agents were tested over a range starting from a high concentration at or near the clinical Cmax and decreasing in half-log increments. If the clinical Cmax for an agent had not been determined, the highest concentration tested was 10 microM.
# Cell Culture. All cells were maintained in an incubator at 37 degrees C and 5% CO2 with 95% humidity. The PDC lines were cultured according to standard operating procedures established by the NCI PDMR (https://pdmr.cancer.gov/sops/default.htm). All PDCs were thawed and cultured in Matrigel-coated flasks prepared with a working solution of 1X Ham's F-12 nutrient mix, without supplementation (Invitrogen, Waltham, MA, cat. 11765054), 100 U/mL penicillin-streptomycin (Invitrogen, cat. 15140122), and 2.5% Matrigel (Corning Inc., Corning, NY, cat. 354248) for the first three passages. The 354836-022-R-J1-PDC, 475296-252-R-J1-PDC, and 997726-040-R-J2-PDC lines were cultured in 6A media, which includes advanced DMEM/F-12 (Thermo Fisher Scientific, cat. 12634028), 10 mM HEPES (Thermo Fisher Scientific, cat. 15630080), 1X GlutaMAX supplement (Thermo Fisher Scientific, cat. 35050061), 0.1 mg/mL primocin (InvivoGen, San Diego, CA, cat. ant-pm-2), 10% defined fetal bovine serum, heat inactivated (HyClone Laboratories Inc., Logan, UT, cat. SH30070.03HI), 50% L-WRN conditioned media (ATCC, cat. CRL-3276), 1.25 mM N-Acetyl-L-cysteine (Sigma-Aldrich, cat. A9165), 10 mM nicotinamide (Sigma-Aldrich, cat. N0636), 1X B-27 supplement (Thermo Fisher Scientific, cat. 17504044), 1X N-2 supplement (Thermo Fisher Scientific, cat. 17502048), and 10 microM Y-27632 dihydrochloride (Tocris Bioscience, Bristol, United Kingdom, cat. 1254). The 624824-186-R-J2-PDC line was cultured in 6C/Colon 1B media, which includes all 6A media components plus 50 ng/mL human EGF recombinant protein (Thermo Fisher Scientific, cat. PHG0311). […]
# 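Further: spheroids exposed to agents for seven days before luminescence read.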
# 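Wherever viability, T/C is given: luminescent signal used as a stand-in for spheroid viability; percent viability relative to DMSO vehicle control wells taken as 100%.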
compound,measurement,setting,value
Cn1cnc2c(F)c(Nc3ccc(Br)cc3Cl)c(C(=O)NOCCO)cc21 + CC(Nc1ncnc2nc[nH]c12)c1cc2cccc(Cl)c2c(=O)n1-c1ccccc1,IC50,second compound 0.0316 µM,2020 nM
same,IC50,second compound 0.1 µM,1540 nM
same,IC50,second compound 0.316 µM,1680 nM
same,IC50,second compound 1 µM,1280 nM
same,IC50,second compound 3.16 µM,688 nM
same,IC50,second compound 10 µM,297 nM
same,"viability, T/C","second compound 0.0316 µM, first compound 0.00949 µM",102%
same,"viability, T/C","second compound 0.0316 µM, first compound 0.03 µM",87.3%
same,"viability, T/C","second compound 0.0316 µM, first compound 0.0949 µM",103%
same,"viability, T/C","second compound 0.0316 µM, first compound 0.3 µM",74.2%
same,"viability, T/C","second compound 0.0316 µM, first compound 0.949 µM",66.8%
same,"viability, T/C","second compound 0.0316 µM, first compound 3 µM",42.2%
same,"viability, T/C","second compound 0.1 µM, first compound 0.00949 µM",96.5%
same,"viability, T/C","second compound 0.1 µM, first compound 0.03 µM",84.3%
same,"viability, T/C","second compound 0.1 µM, first compound 0.0949 µM",101%
same,"viability, T/C","second compound 0.1 µM, first compound 0.3 µM",80.8%
same,"viability, T/C","second compound 0.1 µM, first compound 0.949 µM",59.8%
same,"viability, T/C","second compound 0.1 µM, first compound 3 µM",37.6%
same,"viability, T/C","second compound 0.316 µM, first compound 0.00949 µM",95.8%
same,"viability, T/C","second compound 0.316 µM, first compound 0.03 µM",98.6%
same,"viability, T/C","second compound 0.316 µM, first compound 0.0949 µM",81.3%
same,"viability, T/C","second compound 0.316 µM, first compound 0.3 µM",86.1%
same,"viability, T/C","second compound 0.316 µM, first compound 0.949 µM",59.2%
same,"viability, T/C","second compound 0.316 µM, first compound 3 µM",38.6%
same,"viability, T/C","second compound 1 µM, first compound 0.00949 µM",97.4%
same,"viability, T/C","second compound 1 µM, first compound 0.03 µM",106%
same,"viability, T/C","second compound 1 µM, first compound 0.0949 µM",87.7%
same,"viability, T/C","second compound 1 µM, first compound 0.3 µM",80.3%
same,"viability, T/C","second compound 1 µM, first compound 0.949 µM",56.4%
same,"viability, T/C","second compound 1 µM, first compound 3 µM",31.5%
same,"viability, T/C","second compound 3.16 µM, first compound 0.00949 µM",91%
same,"viability, T/C","second compound 3.16 µM, first compound 0.03 µM",91.3%
same,"viability, T/C","second compound 3.16 µM, first compound 0.0949 µM",80.7%
same,"viability, T/C","second compound 3.16 µM, first compound 0.3 µM",67.2%
same,"viability, T/C","second compound 3.16 µM, first compound 0.949 µM",43.2%
same,"viability, T/C","second compound 3.16 µM, first compound 3 µM",27.4%
same,"viability, T/C","second compound 10 µM, first compound 0.00949 µM",101%
same,"viability, T/C","second compound 10 µM, first compound 0.03 µM",80.6%
same,"viability, T/C","second compound 10 µM, first compound 0.0949 µM",74.3%
same,"viability, T/C","second compound 10 µM, first compound 0.3 µM",47.4%
same,"viability, T/C","second compound 10 µM, first compound 0.949 µM",31.7%
same,"viability, T/C","second compound 10 µM, first compound 3 µM",18.1%
CCN1CCN(Cc2ccc(Nc3ncc(F)c(-c4cc(F)c5nc(C)n(C(C)C)c5c4)n3)nc2)CC1 + COc1c(OCCCN2CCOCC2)ccc2c3n(c(=NC(=O)c4cnc(N)nc4)nc12)CCN3,IC50,second compound 0.00316 µM,> 1000 nM
same,IC50,second compound 0.01 µM,> 1000 nM
same,IC50,second compound 0.0316 µM,> 1000 nM
same,IC50,second compound 0.1 µM,59.7 nM
same,IC50,second compound 0.316 µM,< 3.16 nM
same,IC50,second compound 1 µM,< 3.16 nM
same,"viability, T/C","second compound 0.00316 µM, first compound 0.00316 µM",99%
same,"viability, T/C","second compound 0.00316 µM, first compound 0.01 µM",107%
same,"viability, T/C","second compound 0.00316 µM, first compound 0.0316 µM",104%
same,"viability, T/C","second compound 0.00316 µM, first compound 0.1 µM",116%
same,"viability, T/C","second compound 0.00316 µM, first compound 0.316 µM",107%
same,"viability, T/C","second compound 0.00316 µM, first compound 1 µM",94.8%
same,"viability, T/C","second compound 0.01 µM, first compound 0.00316 µM",99.2%
same,"viability, T/C","second compound 0.01 µM, first compound 0.01 µM",94.9%
same,"viability, T/C","second compound 0.01 µM, first compound 0.0316 µM",99.7%
same,"viability, T/C","second compound 0.01 µM, first compound 0.1 µM",95.2%
same,"viability, T/C","second compound 0.01 µM, first compound 0.316 µM",76.5%
same,"viability, T/C","second compound 0.01 µM, first compound 1 µM",74.7%
same,"viability, T/C","second compound 0.0316 µM, first compound 0.00316 µM",99%
same,"viability, T/C","second compound 0.0316 µM, first compound 0.01 µM",99.1%
same,"viability, T/C","second compound 0.0316 µM, first compound 0.0316 µM",88.3%
same,"viability, T/C","second compound 0.0316 µM, first compound 0.1 µM",68.5%
same,"viability, T/C","second compound 0.0316 µM, first compound 0.316 µM",57.5%
same,"viability, T/C","second compound 0.0316 µM, first compound 1 µM",61.5%
same,"viability, T/C","second compound 0.1 µM, first compound 0.00316 µM",81%
same,"viability, T/C","second compound 0.1 µM, first compound 0.01 µM",73.2%
same,"viability, T/C","second compound 0.1 µM, first compound 0.0316 µM",57.5%
same,"viability, T/C","second compound 0.1 µM, first compound 0.1 µM",40.8%
same,"viability, T/C","second compound 0.1 µM, first compound 0.316 µM",40.7%
same,"viability, T/C","second compound 0.1 µM, first compound 1 µM",50.5%
same,"viability, T/C","second compound 0.316 µM, first compound 0.00316 µM",48.4%
same,"viability, T/C","second compound 0.316 µM, first compound 0.01 µM",41.7%
same,"viability, T/C","second compound 0.316 µM, first compound 0.0316 µM",41.5%
same,"viability, T/C","second compound 0.316 µM, first compound 0.1 µM",27.4%
same,"viability, T/C","second compound 0.316 µM, first compound 0.316 µM",41.7%
same,"viability, T/C","second compound 0.316 µM, first compound 1 µM",52.4%
same,"viability, T/C","second compound 1 µM, first compound 0.00316 µM",27.7%
same,"viability, T/C","second compound 1 µM, first compound 0.01 µM",32.4%
same,"viability, T/C","second compound 1 µM, first compound 0.0316 µM",23.4%
same,"viability, T/C","second compound 1 µM, first compound 0.1 µM",24.3%
same,"viability, T/C","second compound 1 µM, first compound 0.316 µM",34.9%
same,"viability, T/C","second compound 1 µM, first compound 1 µM",54.8%
